One experiment concerns MDA-MB-231. Description: MTS cell proliferation test, MDA-MB-231.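 Also: cells settled 24 h before compound addition, MTS absorbance at 490 nm, survival as percent of untreated cells after blank subtraction, IC50 fitted from survival versus concentration.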 The settings on record: Homo sapiens, MDA-MB-231, 72 h, read-out: MDA231 IC50 (Mean ± SD).
The subject of another experiment is HCT116. Description: MTS cell proliferation test, HCT116.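 Also: absorbance at 490 nm after MTS/PMS addition, survival relative to untreated cells (100%) after blank subtraction, IC50 from the concentration–survival curve.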 The settings on record: Homo sapiens, HCT-116, 72 h, read-out: HCT116 IC50 (Mean ± SD). In general terms: Tetrazolium dyes change colour on reduction, which living cells bring about.

Description for HCT116: (§1) The disclosed compounds and their pharmaceutically accepted salts are assayed for their anti-cancer activities by the following method. • MTS Cell Proliferation Test 1. Materials 1.1. […] Cell Lines
(§2) Two cell lines were used, both HCT116 and MDA-MB-231 were purchased from USATCC.
(§3) MTS reagent powder was purchased from Promega. Cat #G1111; PMS from Sigma, Cat #P8625; cell culture medium RPMI-1640, Cat #10040562R; DMEM, Cat #0013CVR; 100× sodium pyruvate solution Cat #136007; 100× Penicillin Streptomycin Solution, Cat ⊇15140122; 100× Penicillin Streptomycin Solution, Cat #15140122; 0.25% Trypsin (Parenzyme), Cat #25200-072; and fetal bovine serum, Cat #16000-044 were all purchased from Life Technologies.
(§4) • Thermo incubator (Format 371); • Heat force Biosafety Cabinet (HF sage 1500); • BioTek Microplate Reader (Synergy 2). 2. […] 2.3 Procedure of MTS Methods:
(§5) Cells at logarithmic phase were harvested, then digested with 0.25% trypsin, and re-suspense in complete growth medium. 150 uL/well of HCT-116 and MDA-MB-231 were dispensed into 96 well culture plates with 2.5×10^3 cell/well. The plates were pre-incubated in a humidified CO2 incubator at 37° C., 5% CO2) for 24 hours. 50 uL of various concentration of test compounds and reference compound were added. A negative control (only cells and culture medium without compound) and blank control (only culture medium without cells) were set at the same time. The plates were incubated for 72 hr in the incubator. The MTS/PMS solution was prepared and added into 96 well plates according to the test instruction by Promega Corporation. The plates were incubated again for some time, then the absorbance at 490 nm were measured using Biotek Instruments, Inc microplate reader and the cell survival rates calculated. Cell Survival Rate(%)=(At−Ab)/(Ac−Ab)×100% where, • At=Absorbance value of test compound • Ab=Absorbance value of blank • Ac=Absorbance value of control 3. Results
Description for MDA-MB-231: as §1, §2, §3, §4, §5

Broadly, the IC50 is the point on the concentration scale where inhibition reaches its midpoint. Take `O=C1C2=C(CN(Cc3ccccc3)C2)N2CCN=C2N1Cc1ccc(Cl)cc1Cl` [Compound I-56, 2-benzyl-5-(2,4-dichlorobenzyl)-2,3,7,8-tetrahydro-1H-imidazo[1,2-a]pyrrolo[3,4-e]pyrimidin-4(5H)-one]: the IC50 amounted to 2050 ± 40 nM in the experiment with MDA-MB-231 and 2050 ± 30 nM in the experiment with HCT116.
For `O=C1C2=C(CCN(Cc3ccccc3)C2)N2CCN=C2N1Cc1ccc(Cl)cc1` [Compound I-3, 7-benzyl-4-(4-chlorobenzyl)-1,2,6,7,8,9-hexahydroimidazo[1,2-a]pyrido[3,4-e]pyrimidin-5(4H)-one] the same measures were 70 ± 3 nM and 60 ± 6 nM.
Turning to `Cc1cccc(CN2CCC3=C(C2)C(=O)N(Cc2ccccc2Br)C2=NCCN23)c1` [Compound I-33, 4-(2-bromobenzyl)-7-(3-methylbenzyl)-1,2,6,7,8,9-hexahydroimidazo[1,2-a]pyrido[3,4-e]pyrimidin-5(4H)-one], the IC50 with MDA-MB-231 is 860 ± 136 nM; in the experiment with HCT116, 720 ± 1 nM.
With `Cc1ccccc1CN1C(=O)C2=C(CCN(Cc3ccccc3)C2)N2CCN=C12` [TIC10, 7-benzyl-4-(2-methylbenzyl)-1,2,6,7,8,9-hexahydroimidazo[1,2-a]pyrido[3,4-e]pyrimidin-5(4H)-one, reference compound], the IC50 was 790 ± 80 nM with MDA-MB-231 and 1060 ± 240 nM in the experiment with HCT116.
As for `O=C1C2=C(CCN(Cc3cccc(F)c3)C2)N2CCN=C2N1Cc1ccccc1F` [Compound I-49, 4-(2-fluorobenzyl)-7-(3-fluorobenzyl)-1,2,6,7,8,9-hexahydroimidazo[1,2-a]pyrido[3,4-e]pyrimidin-5(4H)-one], the IC50 in the experiment on MDA-MB-231 was 930 ± 98 nM; in the experiment with HCT116 it was 580 ± 43 nM.
For `O=C1C2=C(CCN(Cc3ccccc3)C2)N2CCN=C2N1Cc1ccc(Cl)c(Cl)c1` [Compound I-40, 7-benzyl-4-(3,4-dichlorobenzyl)-1,2,6,7,8,9-hexahydroimidazo[1,2-a]pyrido[3,4-e]pyrimidin-5(4H)-one] the same measures were 120 ± 10 nM and 80 nM.
Taken in the same sequence, the figures for `O=C1C2=C(CCN(Cc3ccccc3)C2)N2CCN=C2N1Cc1cccc(Cl)c1` [Compound I-1, 7-Benzyl-4-(3-chlorobenzyl)-1,2,6,7,8,9-hexahydroimidazo[1,2-a]pyrido[3,4-e]pyrimidin-5(4H)-one] were 240 nM and 230 ± 9 nM.
`O=C1C2=C(CCN(Cc3ccccc3F)C2)N2CCN=C2N1Cc1ccccc1F` [Compound I-11, 4,7-bis(2-fluorobenzyl)-1,2,6,7,8,9-hexahydroimidazo[1,2-a]pyrido[3,4-e]pyrimidin-5(4H)-one]: the IC50 in the experiment on MDA-MB-231 was 2180 ± 20 nM; in the experiment on HCT116, 1990 ± 41 nM.
Taken in the same sequence, the figures for `O=C1C2=C(CCN(Cc3cccc(F)c3)C2)N2CCN=C2N1Cc1ccccc1Br` [Compound I-52, 4-(2-bromobenzyl)-7-(3-fluorobenzyl)-1,2,6,7,8,9-hexahydroimidazo[1,2-a]pyrido[3,4-e]pyrimidin-5(4H)-one] were 2070 ± 115 nM and 1180 ± 155 nM.
Taken in the same sequence, the figures for `O=C1C2=C(CCN(Cc3ccccc3)C2)N2CCN=C2N1Cc1cccc(C(F)(F)F)c1` [Compound I-38, 7-benzyl-4-(3-(trifluoromethyl)benzyl)-1,2,6,7,8,9-hexahydroimidazo[1,2-a]pyrido[3,4-e]pyrimidin-5(4H)-one] were 400 ± 30 nM and 240 ± 20 nM.
Taken in the same sequence, the figures for `O=C1C2=C(CCN(Cc3ccccc3Cl)C2)N2CCN=C2N1Cc1ccccc1Br` [Compound I-26, 4-(2-bromobenzyl)-7-(2-chlorobenzyl)-1,2,6,7,8,9-hexahydroimidazo[1,2-a]pyrido[3,4-e]pyrimidin-5(4H)-one] were 2080 ± 67 nM and 1500 ± 394 nM.
Consider `O=C1C2=C(CCN(Cc3ccccc3Br)C2)N2CCN=C2N1Cc1ccccc1F` [Compound I-16, 7-(2-bromobenzyl)-4-(2-fluorobenzyl)-1,2,6,7,8,9-hexahydroimidazo[1,2-a]pyrido[3,4-e]pyrimidin-5(4H)-one], for which the half-inhibitory concentration (IC50) in the experiment on MDA-MB-231 is 3070 ± 752 nM; in the experiment on HCT116, 2160 ± 13 nM.
Consider `O=C1C2=C(CCN(Cc3cccc(Br)c3)C2)N2CCN=C2N1Cc1ccccc1F` [Compound I-53, 7-(3-bromobenzyl)-4-(2-fluorobenzyl)-1,2,6,7,8,9-hexahydroimidazo[1,2-a]pyrido[3,4-e]pyrimidin-5(4H)-one], for which the results for the IC50 in the experiment with MDA-MB-231 and in the experiment with HCT116 were 730 ± 2 nM and 700 ± 1 nM, respectively.
For `O=C1C2=C(CCN(Cc3ccccc3Cl)C2)N2CCN=C2N1Cc1ccccc1Cl` [Compound I-25, 4,7-bis(2-chlorobenzyl)-1,2,6,7,8,9-hexahydroimidazo[1,2-a]pyrido[3,4-e]pyrimidin-5(4H)-one] the same measures were 1310 ± 154 nM and 1950 ± 64 nM.
Consider `O=C1C2=C(CCN(Cc3cccc(Cl)c3)C2)N2CCN=C2N1Cc1ccccc1Br` [Compound I-37, 4-(2-bromobenzyl)-7-(3-chlorobenzyl)-1,2,6,7,8,9-hexahydroimidazo[1,2-a]pyrido[3,4-e]pyrimidin-5(4H)-one], for which the values for the IC50 in the experiment with MDA-MB-231 and with HCT116 were 2330 ± 95 nM and 2310 ± 33 nM, respectively.
As to `O=C1C2=C(CCN(Cc3ccccc3Cl)C2)N2CCN=C2N1Cc1ccccc1F` [Compound I-23, 7-(2-chlorobenzyl)-4-(2-fluorobenzyl)-1,2,6,7,8,9-hexahydroimidazo[1,2-a]pyrido[3,4-e]pyrimidin-5(4H)-one], the figures for the IC50 in the experiment on MDA-MB-231 and in the experiment with HCT116 were 2140 ± 25 nM and 2000 ± 26 nM, respectively.
Taken in the same sequence, the figures for `O=C1C2=C(CCN(Cc3ccccc3)C2)N2CCN=C2N1Cc1ccccc1Br` [Compound I-5, 7-benzyl-4-(2-bromobenzyl)-1,2,6,7,8,9-hexahydroimidazo[1,2-a]pyrido[3,4-e]pyrimidin-5(4H)-one] were 6810 ± 57 nM and 5960 ± 1350 nM.
With `O=C1C2=C(CCN(Cc3ccccc3)C2)N2CCN=C2N1Cc1ccccc1C(F)(F)F` [Compound I-4, 7-benzyl-4-(2-(trifluoromethyl)benzyl)-1,2,6,7,8,9-hexahydroimidazo[1,2-a]pyrido[3,4-e]pyrimidin-5(4H)-one], the IC50 in the experiment with MDA-MB-231 stood at 1170 ± 178 nM; in the experiment with HCT116, 1360 ± 23 nM.
For `O=C1C2=C(CCN(Cc3ccccc3)C2)N2CCN=C2N1Cc1ccc(Cl)c(C(F)(F)F)c1` [Compound I-42, 7-benzyl-4-(4-chloro-3-(trifluoromethyl)benzyl)-1,2,6,7,8,9-hexahydroimidazo[1,2-a]pyrido[3,4-e]pyrimidin-5(4H)-one] the same measures were 1070 ± 10 nM and 730 nM.
Consider `O=C1C2=C(CCN(Cc3cccc(F)c3)C2)N2CCN=C2N1Cc1ccccc1C(F)(F)F` [Compound I-50, 7-(3-fluorobenzyl)-4-(2-(trifluoromethyl)benzyl)-1,2,6,7,8,9-hexahydroimidazo[1,2-a]pyrido[3,4-e]pyrimidin-5(4H)-one], for which the IC50 with MDA-MB-231 was 1770 ± 429 nM; in the experiment with HCT116 it was 770 ± 14 nM.
Taken in the same sequence, the figures for `O=C1C2=C(CCN(Cc3ccccc3F)C2)N2CCN=C2N1Cc1ccccc1Br` [Compound I-14, 4-(2-bromobenzyl)-7-(2-fluorobenzyl)-1,2,6,7,8,9-hexahydroimidazo[1,2-a]pyrido[3,4-e]pyrimidin-5(4H)-one] were 2080 ± 24 nM and 1450 ± 155 nM.
For the molecule `Cc1cccc(CN2C(=O)C3=C(CCN(Cc4ccccc4)C3)N3CCN=C23)c1` [Compound I-2, 7-benzyl-4-(3-methylbenzyl)-1,2,6,7,8,9-hexahydroimidazo[1,2-a]pyrido[3,4-e]pyrimidin-5(4H)-one], the IC50 in the experiment on MDA-MB-231 came to 240 nM; with HCT116 it was 230 ± 4 nM.
For `Cc1cccc(CN2CCC3=C(C2)C(=O)N(Cc2ccccc2F)C2=NCCN23)c1` [Compound I-30, 4-(2-fluorobenzyl)-7-(3-methylbenzyl)-1,2,6,7,8,9-hexahydroimidazo[1,2-a]pyrido[3,4-e]pyrimidin-5(4H)-one] the same measures were 2130 ± 5 nM and 2070 ± 62 nM.
Take `Cc1ccccc1CN1C(=O)C2=C(CCN(Cc3ccccc3Cl)C2)N2CCN=C12` [Compound I-27, 7-(2-chlorobenzyl)-4-(2-methylbenzyl)-1,2,6,7,8,9-hexahydroimidazo[1,2-a]pyrido[3,4-e]pyrimidin-5(4H)-one]: the IC50 with MDA-MB-231 turned out to be 2260 ± 18 nM; in the experiment with HCT116, 2130 ± 45 nM.
